From US20250186437A1, “CARBOLINE COMPOUNDS AND USE THEREOF” (PTC Therapeutics, Inc., priority 2021, published 2025)

What was measured:
[1] = test system: MOLM-13 cells; experiment: MOLM-13 Cell Proliferation Assay (indicator of DHODH inhibition); assay type: cell-based; settings: Homo sapiens, 72 Hours of culture, CellTiter-Glo, no uridine
Summary of the method: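 Low-passage MOLM-13 cells (10^4/well) in RPMI 1640 + 10% FBS exposed to compound (0.5% DMSO final) for 72 h at 37 °C, 5% CO2. Viability read by CellTiter-Glo luminescence; growth reflects de novo pyrimidine synthesis dependent on DHODH.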

[2] = test system: MOLM-13 cells; experiment: MOLM-13 Uridine Rescue Assay; assay type: cell-based; settings: Homo sapiens; MOLM-13 cell proliferation with 100 μM Uridine added, 72 Hours of culture
Protocol: The following assay was conducted to measure proliferation of MOLM-13 cells in the presence of each compound studied. This assay was included as an indicator of DHODH inhibition, as growth of MOLM-13 cells is known to depend on synthesis of pyrimidines using the de novo pathway, which can be blocked by inhibition of DHODH. • 1. MOLM-13 cells were cultured in RPMI 1640 medium+10% Fetal Bovine Serum (FBS). Only low passage cells (<20) were used for the compound tests • 2. On day 1, Log-phase growing Molm-13 Cells were counted and diluted to 10^5 cells/mL in RPMI 1640 medium+10% FBS • 3. 100 μL of diluted MOLM-13 cells in 96 well white plates were seeded, for a final density of 10^4 cells/well. • 4. 0.5 μL of pre-diluted 200× compounds or DMSO control was added to each well. The final DMSO concentration was 0.5%. • 5. After 72 Hours of culture at 37° C., 5% CO2, the plates were taken out and cooled to RT, then 50 μL CellTiter-Glo® (Promega) was added, and the composition was mixed at RT for 10 minutes. • 6. The plates were then read by ViewLux (Speed-fast, Gain-High, Bining-1X, 5 seconds).
Several compounds were also tested in a Uridine rescue assay. In the Uridine rescue assay, using the procedure in Example 1 above, an additional plate of MOLM-13 cell cultures was prepared, to which 100 μM of Uridine was added in step 3 of the process.

IC50 [1] | IC50 [2] | SMILES
0.0003 µM | 6.64 µM | FC(F)(F)c1nc(N2CCc3c([nH]c4ccc(Cl)cc34)C2c2cnc(N3CCOCC3)nc2)nc(C(F)(F)F)n1 (centres unmarked) [Compound 388, 2-[4,6-bis(trifluoromethyl)-1,3,5-triazin-2-yl]-6-chloro-1-[2-(morpholin-4-yl)pyrimidin-5-yl]-2,3,4,9-tetrahydro-1H-pyrido[3,4-b]indole]
0.0106 µM | 0.72 µM | N#Cc1cc(C#N)nc(N2CCc3c([nH]c4ccc(Cl)cc34)[C@@H]2c2cnc(N3CCOCC3)nc2)n1 [Compound 398, 2-{(1S)-6-chloro-1-[2-(morpholin-4-yl)pyrimidin-5-yl]-1,3,4,9-tetrahydro-2H-pyrido[3,4-b]indol-2-yl}pyrimidine-4,6-dicarbonitrile]
0.0002 µM | 5.88 µM | FC(F)(F)c1nc(N2CCc3c([nH]c4ccc(Cl)cc34)[C@@H]2c2ccc(N3CCOCC3)nc2)nc(C(F)(F)F)n1 [Compound 405, (1S)-2-[4,6-bis(trifluoromethyl)-1,3,5-triazin-2-yl]-6-chloro-1-[6-(morpholin-4-yl)pyridin-3-yl]-2,3,4,9-tetrahydro-1H-pyrido[3,4-b]indole]
0.0003 µM | 8.35 µM | FC(F)(F)c1nc(N2CCc3c([nH]c4ccc(Cl)cc34)[C@@H]2c2cnc(N3CCOCC3)nc2)nc(C(F)(F)F)n1 [Compound 406, (1S)-2-[4,6-bis(trifluoromethyl)-1,3,5-triazin-2-yl]-6-chloro-1-[2-(morpholin-4-yl)pyrimidin-5-yl]-2,3,4,9-tetrahydro-1H-pyrido[3,4-b]indole]
0.0003 µM | 14.7 µM | Cc1ccc([C@H]2c3[nH]c4ccc(Cl)cc4c3CCN2c2nc(C(F)(F)F)cc(C(F)(F)F)n2)c(F)c1F [Compound 407, (1S)-2-[4,6-bis(trifluoromethyl)pyrimidin-2-yl]-6-chloro-1-(2,3-difluoro-4-methylphenyl)-2,3,4,9-tetrahydro-1H-pyrido[3,4-b]indole]

Second part, the compound before the results:

SMILES | IC50 [1] | IC50 [2]
CN1CCN(c2ncc(C3c4[nH]c5ccc(Cl)cc5c4CCN3c3nccc(C(F)(F)F)n3)cn2)CC1 (centres unmarked) [Compound 369, 6-chloro-1-[2-(4-methylpiperazin-1-yl)pyrimidin-5-yl]-2-[4-(trifluoromethyl)pyrimidin-2-yl]-2,3,4,9-tetrahydro-1H-pyrido[3,4-b]indole] | 0.0045 µM | 5.02 µM
Cc1cc(C(F)(F)F)nc(N2CCc3c([nH]c4ccc(Cl)cc34)C2c2ccc(N3CCOCC3)nc2)n1 (centres unmarked) [Compound 372, 6-chloro-2-[4-methyl-6-(trifluoromethyl)pyrimidin-2-yl]-1-[6-(morpholin-4-yl)pyridin-3-yl]-2,3,4,9-tetrahydro-1H-pyrido[3,4-b]indole] | 0.0016 µM | 16.4 µM
Cc1cc(C(F)(F)F)nc(N2CCc3c([nH]c4ccc(Cl)cc34)C2c2cnc(N3CCOCC3)nc2)n1 (centres unmarked) [Compound 374, 6-chloro-2-[4-methyl-6-(trifluoromethyl)pyrimidin-2-yl]-1-[2-(morpholin-4-yl)pyrimidin-5-yl]-2,3,4,9-tetrahydro-1H-pyrido[3,4-b]indole] | 0.0016 µM | 8.84 µM
CN1CCN(c2ncc(C3c4[nH]c5ccc(Cl)cc5c4CCN3c3nc(C(F)(F)F)cc(C(F)(F)F)n3)cn2)CC1 (centres unmarked) [Compound 381, 2-[4,6-bis(trifluoromethyl)pyrimidin-2-yl]-6-chloro-1-[2-(4-methylpiperazin-1-yl)pyrimidin-5-yl]-2,3,4,9-tetrahydro-1H-pyrido[3,4-b]indole] | 0.0007 µM | 4.29 µM
Cc1ccc([C@H]2c3[nH]c4ccc(Cl)cc4c3CCN2c2nc(C(F)(F)F)nc(C(F)(F)F)n2)c(F)c1F [Compound 387, (1S)-2-[4,6-bis(trifluoromethyl)-1,3,5-triazin-2-yl]-6-chloro-1-(2,3-difluoro-4-methylphenyl)-2,3,4,9-tetrahydro-1H-pyrido[3,4-b]indole] | 0.0002 µM | 7.66 µM
